Measured values taken from ChEMBL document CHEMBL1129258, “Synthesis and structure-activity relationships of 2-pyridones: a novel series of potent DNA gyrase inhibitors as antibacterial agents” (J Med Chem, 1996).
Converted amounts (≈) assume the structure as drawn.

Molecular target: T1, DNA gyrase (Staphylococcus aureus) (UniProt P0A0K8+P20831)
Experiment: In vitro antibacterial activity against gram-positive organism Staphylococcus aureus 1775
Type: functional
Details: not given

SMILES	MIC [µg/mL]
Cc1c(N2CCC(n3ccnn3)C2)c(F)cn2c(=O)c(C(=O)O)cc(C3CC3)c12 (stereo unspecified)	0.78 (≈ 1.96 µM)
Cc1c(N(C)CCN)c(F)cn2c(=O)c(C(=O)O)cc(C3CC3)c12	> 100
Cc1c(F)c(N2CCC(N)C2)cc2c(C3CC3)cc(C(=O)O)c(=O)n12 (stereo unspecified)	50 (≈ 145 µM)

Second part, the compound after the results:

MIC [µg/mL]	SMILES
0.2 (≈ 0.491 µM)	Cc1c(N2CCC(c3ccccn3)C2)c(F)cn2c(=O)c(C(=O)O)cc(C3CC3)c12 (stereo unspecified)
12.5 (≈ 37.5 µM)	CCc1cc(C(=O)O)c(=O)n2cc(F)c(N3CCC(N)C3)c(C)c12 (stereo unspecified)
3.1 (≈ 8.26 µM)	CO[C@@H]1CN(c2c(F)cn3c(=O)c(C(=O)O)cc(C4CC4)c3c2C)C[C@H]1N

Molecular target: T2, DNA gyrase (Escherichia coli) (UniProt P0AES6+P0AES4)
Details: Escherichia coli K-12
Description: Concentration which causes 50% of the gyrase (Escherichia coli H560)-mediated maximal DNA cleavage.

SMILES	CC50 [µg/mL]
Cc1c(N2CCC(n3ccnn3)C2)c(F)cn2c(=O)c(C(=O)O)cc(C3CC3)c12 (stereo unspecified)	0.07 (≈ 0.176 µM)
Cc1c(N2CCC(c3ccccn3)C2)c(F)cn2c(=O)c(C(=O)O)cc(C3CC3)c12 (stereo unspecified)	2.6 (≈ 6.38 µM)
CCc1cc(C(=O)O)c(=O)n2cc(F)c(N3CCC(N)C3)c(C)c12 (stereo unspecified)	3.2 (≈ 9.6 µM)
Cc1c(F)c(N2CCC(N)C2)cc2c(C3CC3)cc(C(=O)O)c(=O)n12 (stereo unspecified)	10 (≈ 29 µM)

Tested on: Streptococcus pyogenes
Experiment: In vitro antibacterial activity against gram-positive organism Streptococcus pyogenes EES61
Type: functional
Details: Streptococcus pyogenes; read-out: MIC

SMILES	MIC [µg/mL]
Cc1c(N2CCC(n3ccnn3)C2)c(F)cn2c(=O)c(C(=O)O)cc(C3CC3)c12 (stereo unspecified)	0.05 (≈ 0.126 µM)
Cc1c(N(C)CCN)c(F)cn2c(=O)c(C(=O)O)cc(C3CC3)c12	12.5 (≈ 37.5 µM)
Cc1c(F)c(N2CCC(N)C2)cc2c(C3CC3)cc(C(=O)O)c(=O)n12 (stereo unspecified)	3.1 (≈ 8.98 µM)

More lines, now with the values ahead:

MIC [µg/mL]	SMILES
0.05 (≈ 0.123 µM)	Cc1c(N2CCC(c3ccccn3)C2)c(F)cn2c(=O)c(C(=O)O)cc(C3CC3)c12 (stereo unspecified)
0.39 (≈ 1.17 µM)	CCc1cc(C(=O)O)c(=O)n2cc(F)c(N3CCC(N)C3)c(C)c12 (stereo unspecified)
0.39 (≈ 1.04 µM)	CO[C@@H]1CN(c2c(F)cn3c(=O)c(C(=O)O)cc(C4CC4)c3c2C)C[C@H]1N

Molecular target: T2, DNA gyrase (Escherichia coli)
Experiment: In vitro antibacterial activity against gram-negative organism Prov. stuartii CMX-640
Type: functional
Details: Providencia stuartii

SMILES	MIC [µg/mL]
Cc1c(N2CCC(n3ccnn3)C2)c(F)cn2c(=O)c(C(=O)O)cc(C3CC3)c12 (stereo unspecified)	0.39 (≈ 0.981 µM)
Cc1c(N(C)CCN)c(F)cn2c(=O)c(C(=O)O)cc(C3CC3)c12	25 (≈ 75 µM)
Cc1c(F)c(N2CCC(N)C2)cc2c(C3CC3)cc(C(=O)O)c(=O)n12 (stereo unspecified)	12.5 (≈ 36.2 µM)

The next lines start with the values.

MIC [µg/mL]	SMILES
1.56 (≈ 3.83 µM)	Cc1c(N2CCC(c3ccccn3)C2)c(F)cn2c(=O)c(C(=O)O)cc(C3CC3)c12 (stereo unspecified)
0.78 (≈ 2.34 µM)	CCc1cc(C(=O)O)c(=O)n2cc(F)c(N3CCC(N)C3)c(C)c12 (stereo unspecified)
3.1 (≈ 8.26 µM)	CO[C@@H]1CN(c2c(F)cn3c(=O)c(C(=O)O)cc(C4CC4)c3c2C)C[C@H]1N

Molecular target: T2, DNA gyrase (Escherichia coli)
Experiment: In vitro antibacterial activity against gram-negative organism Klebsiella pneumoniae ATCC 8045
Type: functional
Details: not given

SMILES	MIC [µg/mL]
Cc1c(N2CCC(n3ccnn3)C2)c(F)cn2c(=O)c(C(=O)O)cc(C3CC3)c12 (stereo unspecified)	0.05 (≈ 0.126 µM)
Cc1c(N(C)CCN)c(F)cn2c(=O)c(C(=O)O)cc(C3CC3)c12	0.2 (≈ 0.6 µM)
Cc1c(F)c(N2CCC(N)C2)cc2c(C3CC3)cc(C(=O)O)c(=O)n12 (stereo unspecified)	0.1 (≈ 0.29 µM)

Continued, values first:

MIC [µg/mL]	SMILES
0.05 (≈ 0.123 µM)	Cc1c(N2CCC(c3ccccn3)C2)c(F)cn2c(=O)c(C(=O)O)cc(C3CC3)c12 (stereo unspecified)
0.02 (≈ 0.06 µM)	CCc1cc(C(=O)O)c(=O)n2cc(F)c(N3CCC(N)C3)c(C)c12 (stereo unspecified)
0.05 (≈ 0.133 µM)	CO[C@@H]1CN(c2c(F)cn3c(=O)c(C(=O)O)cc(C4CC4)c3c2C)C[C@H]1N

Molecular target: T1, DNA gyrase (Staphylococcus aureus)
Experiment: In vitro antibacterial activity against gram-positive organism Staphylococcus aureus ATCC 6538p
Type: functional
Details: not given

SMILES	MIC [µg/mL]
Cc1c(N2CCC(n3ccnn3)C2)c(F)cn2c(=O)c(C(=O)O)cc(C3CC3)c12 (stereo unspecified)	0.01 (≈ 0.0252 µM)
Cc1c(N(C)CCN)c(F)cn2c(=O)c(C(=O)O)cc(C3CC3)c12	1.56 (≈ 4.68 µM)
Cc1c(F)c(N2CCC(N)C2)cc2c(C3CC3)cc(C(=O)O)c(=O)n12 (stereo unspecified)	0.78 (≈ 2.26 µM)

Further lines, results first:

MIC [µg/mL]	SMILES
0.01 (≈ 0.0245 µM)	Cc1c(N2CCC(c3ccccn3)C2)c(F)cn2c(=O)c(C(=O)O)cc(C3CC3)c12 (stereo unspecified)
0.1 (≈ 0.3 µM)	CCc1cc(C(=O)O)c(=O)n2cc(F)c(N3CCC(N)C3)c(C)c12 (stereo unspecified)
0.05 (≈ 0.133 µM)	CO[C@@H]1CN(c2c(F)cn3c(=O)c(C(=O)O)cc(C4CC4)c3c2C)C[C@H]1N

Tested on: not listed separately
Experiment: In vitro antibacterial activity against gram-negative organism Pseudomonas aeruginosa 5007
Type: functional
Details: Pseudomonas aeruginosa; read-out: MIC

SMILES	MIC [µg/mL]
Cc1c(N2CCC(n3ccnn3)C2)c(F)cn2c(=O)c(C(=O)O)cc(C3CC3)c12 (stereo unspecified)	0.39 (≈ 0.981 µM)
Cc1c(N(C)CCN)c(F)cn2c(=O)c(C(=O)O)cc(C3CC3)c12	6.2 (≈ 18.6 µM)
Cc1c(F)c(N2CCC(N)C2)cc2c(C3CC3)cc(C(=O)O)c(=O)n12 (stereo unspecified)	1.56 (≈ 4.52 µM)

The remaining lines, values ahead:

MIC [µg/mL]	SMILES
0.78 (≈ 1.91 µM)	Cc1c(N2CCC(c3ccccn3)C2)c(F)cn2c(=O)c(C(=O)O)cc(C3CC3)c12 (stereo unspecified)
0.2 (≈ 0.6 µM)	CCc1cc(C(=O)O)c(=O)n2cc(F)c(N3CCC(N)C3)c(C)c12 (stereo unspecified)
1.56 (≈ 4.16 µM)	CO[C@@H]1CN(c2c(F)cn3c(=O)c(C(=O)O)cc(C4CC4)c3c2C)C[C@H]1N

Molecular target: T2, DNA gyrase (Escherichia coli)
Experiment: In vitro antibacterial activity against gram-positive organism Streptococcus bovis A-5169
Type: functional
Details: Streptococcus equinus

SMILES	MIC [µg/mL]
Cc1c(N2CCC(n3ccnn3)C2)c(F)cn2c(=O)c(C(=O)O)cc(C3CC3)c12 (stereo unspecified)	0.2 (≈ 0.503 µM)
Cc1c(N(C)CCN)c(F)cn2c(=O)c(C(=O)O)cc(C3CC3)c12	12.5 (≈ 37.5 µM)
Cc1c(F)c(N2CCC(N)C2)cc2c(C3CC3)cc(C(=O)O)c(=O)n12 (stereo unspecified)	6.2 (≈ 18 µM)

Results, then the compound that gave them:

MIC [µg/mL]	SMILES
0.05 (≈ 0.123 µM)	Cc1c(N2CCC(c3ccccn3)C2)c(F)cn2c(=O)c(C(=O)O)cc(C3CC3)c12 (stereo unspecified)
0.78 (≈ 2.34 µM)	CCc1cc(C(=O)O)c(=O)n2cc(F)c(N3CCC(N)C3)c(C)c12 (stereo unspecified)
0.39 (≈ 1.04 µM)	CO[C@@H]1CN(c2c(F)cn3c(=O)c(C(=O)O)cc(C4CC4)c3c2C)C[C@H]1N

Molecular target: T1, DNA gyrase (Staphylococcus aureus)
Experiment: In vitro antibacterial activity against gram-positive organism Staphylococcus aureus NCTC-10649M
Type: functional
Details: not given

SMILES	MIC [µg/mL]
Cc1c(N2CCC(n3ccnn3)C2)c(F)cn2c(=O)c(C(=O)O)cc(C3CC3)c12 (stereo unspecified)	0.01 (≈ 0.0252 µM)
Cc1c(N(C)CCN)c(F)cn2c(=O)c(C(=O)O)cc(C3CC3)c12	1.56 (≈ 4.68 µM)
Cc1c(F)c(N2CCC(N)C2)cc2c(C3CC3)cc(C(=O)O)c(=O)n12 (stereo unspecified)	1.56 (≈ 4.52 µM)

Further lines, results first:

MIC [µg/mL]	SMILES
0.02 (≈ 0.0491 µM)	Cc1c(N2CCC(c3ccccn3)C2)c(F)cn2c(=O)c(C(=O)O)cc(C3CC3)c12 (stereo unspecified)
0.1 (≈ 0.3 µM)	CCc1cc(C(=O)O)c(=O)n2cc(F)c(N3CCC(N)C3)c(C)c12 (stereo unspecified)
0.05 (≈ 0.133 µM)	CO[C@@H]1CN(c2c(F)cn3c(=O)c(C(=O)O)cc(C4CC4)c3c2C)C[C@H]1N

Molecular target: T2, DNA gyrase (Escherichia coli)
Experiment: In vitro antibacterial activity against gram-positive organism Enterococcus faecium ATCC 8043
Type: functional
Details: not given

SMILES	MIC [µg/mL]
Cc1c(N2CCC(n3ccnn3)C2)c(F)cn2c(=O)c(C(=O)O)cc(C3CC3)c12 (stereo unspecified)	0.05 (≈ 0.126 µM)
Cc1c(N(C)CCN)c(F)cn2c(=O)c(C(=O)O)cc(C3CC3)c12	3.1 (≈ 9.3 µM)
Cc1c(F)c(N2CCC(N)C2)cc2c(C3CC3)cc(C(=O)O)c(=O)n12 (stereo unspecified)	6.2 (≈ 18 µM)

The remaining lines, values ahead:

MIC [µg/mL]	SMILES
0.05 (≈ 0.123 µM)	Cc1c(N2CCC(c3ccccn3)C2)c(F)cn2c(=O)c(C(=O)O)cc(C3CC3)c12 (stereo unspecified)
0.2 (≈ 0.6 µM)	CCc1cc(C(=O)O)c(=O)n2cc(F)c(N3CCC(N)C3)c(C)c12 (stereo unspecified)
0.39 (≈ 1.04 µM)	CO[C@@H]1CN(c2c(F)cn3c(=O)c(C(=O)O)cc(C4CC4)c3c2C)C[C@H]1N

Molecular target: T2, DNA gyrase (Escherichia coli)
Experiment: In vitro antibacterial activity against gram-negative organism […] ATCC 13048
Type: functional
Details: Enterobacter aerogenes

SMILES	MIC [µg/mL]
Cc1c(N2CCC(n3ccnn3)C2)c(F)cn2c(=O)c(C(=O)O)cc(C3CC3)c12 (stereo unspecified)	0.2 (≈ 0.503 µM)
Cc1c(N(C)CCN)c(F)cn2c(=O)c(C(=O)O)cc(C3CC3)c12	1.56 (≈ 4.68 µM)
Cc1c(F)c(N2CCC(N)C2)cc2c(C3CC3)cc(C(=O)O)c(=O)n12 (stereo unspecified)	0.39 (≈ 1.13 µM)

More lines, now with the values ahead:

MIC [µg/mL]	SMILES
0.78 (≈ 1.91 µM)	Cc1c(N2CCC(c3ccccn3)C2)c(F)cn2c(=O)c(C(=O)O)cc(C3CC3)c12 (stereo unspecified)
0.05 (≈ 0.15 µM)	CCc1cc(C(=O)O)c(=O)n2cc(F)c(N3CCC(N)C3)c(C)c12 (stereo unspecified)
0.2 (≈ 0.533 µM)	CO[C@@H]1CN(c2c(F)cn3c(=O)c(C(=O)O)cc(C4CC4)c3c2C)C[C@H]1N

Tested on: not listed separately
Experiment: In vitro antibacterial activity against gram-negative organism Pseudomonas aeruginosa DPHD-2862
Type: functional
Details: Pseudomonas aeruginosa; read-out: MIC

SMILES	MIC [µg/mL]
Cc1c(N2CCC(n3ccnn3)C2)c(F)cn2c(=O)c(C(=O)O)cc(C3CC3)c12 (stereo unspecified)	12.5 (≈ 31.5 µM)
Cc1c(N(C)CCN)c(F)cn2c(=O)c(C(=O)O)cc(C3CC3)c12	> 100
Cc1c(F)c(N2CCC(N)C2)cc2c(C3CC3)cc(C(=O)O)c(=O)n12 (stereo unspecified)	100 (≈ 290 µM)

The next lines start with the values.

MIC [µg/mL]	SMILES
12.5 (≈ 30.7 µM)	Cc1c(N2CCC(c3ccccn3)C2)c(F)cn2c(=O)c(C(=O)O)cc(C3CC3)c12 (stereo unspecified)
12.5 (≈ 37.5 µM)	CCc1cc(C(=O)O)c(=O)n2cc(F)c(N3CCC(N)C3)c(C)c12 (stereo unspecified)
25 (≈ 66.6 µM)	CO[C@@H]1CN(c2c(F)cn3c(=O)c(C(=O)O)cc(C4CC4)c3c2C)C[C@H]1N

Molecular target: T2, DNA gyrase (Escherichia coli)
Experiment: In vitro antibacterial against gram-negative organism Escherichia coli JUHL
Type: functional
Details: Escherichia coli K-12

SMILES	MIC [µg/mL]
Cc1c(N2CCC(n3ccnn3)C2)c(F)cn2c(=O)c(C(=O)O)cc(C3CC3)c12 (stereo unspecified)	0.01 (≈ 0.0252 µM)
Cc1c(N(C)CCN)c(F)cn2c(=O)c(C(=O)O)cc(C3CC3)c12	0.78 (≈ 2.34 µM)
Cc1c(F)c(N2CCC(N)C2)cc2c(C3CC3)cc(C(=O)O)c(=O)n12 (stereo unspecified)	0.2 (≈ 0.579 µM)

The remaining lines, values ahead:

MIC [µg/mL]	SMILES
0.05 (≈ 0.123 µM)	Cc1c(N2CCC(c3ccccn3)C2)c(F)cn2c(=O)c(C(=O)O)cc(C3CC3)c12 (stereo unspecified)
0.01 (≈ 0.03 µM)	CCc1cc(C(=O)O)c(=O)n2cc(F)c(N3CCC(N)C3)c(C)c12 (stereo unspecified)
0.05 (≈ 0.133 µM)	CO[C@@H]1CN(c2c(F)cn3c(=O)c(C(=O)O)cc(C4CC4)c3c2C)C[C@H]1N
